pEC50, pIC50: −log10 of the molar value. Like-named read-outs stand apart in the source and are kept apart here.
Legend:
[1] = system: LPS-induced TNFα secretion in monocyte-derived macrophages (MdM); test: MdM assay: LPS-triggered TNFα (ELISA); assay type: cell-based, human; settings: Homo sapiens, Macrophage, LPS-triggered TNFα inhibition
Outline: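 TNFα ELISA read on supernatants harvested 20 h after LPS (final 200 ng/mL) stimulation. Cells were day-10 macrophages derived from human blood CD14+ monocytes, exposed to 3-fold compound dilutions for 1 h at 37 °C beforehand, with DMSO held at 0.2%.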

[2] = system: LPS driven TNFα secretion in Peripheral Blood Mononuclear Cells (PBMC); test: cells; assay type: cell-based; settings: Homo sapiens, LPS 1 ng/mL, supernatant after 18-20 h, ELISA
Experimental: This assay measures the inhibition of LPS driven TNFα secretion by a test compound in Peripheral Blood Mononuclear Cells (PBMC), which in turn correlates with SIK inhibition.
PBMCs are isolated from human blood samples (buffy coats). The buffy coat is aseptically transferred into a 50 mL Falcon™ tube, and diluted 1/2 in Phosphate Buffered Saline (PBS). […] The tubes are centrifuged for 35 min at 400× g in temperature controlled centrifuge, without brake, at 25° C. PBMCs are aspirated from the white interface layer between sample and Lymphoprep. PBMCs are washed five times in PBS. […] The PBMCs are finally seeded at 400,000 PBMC/160 μL/96-well.
A compound dilution plate is made in 100% DMSO by 3-fold dilution of 10 mM stock solution of test compound. An intermediate dilution plate (10× final concentration) is made by diluting the compound dilution plate 50-fold in RPMI medium.
20 μL of the 10× final concentration compound is added to the cells and incubated for 1 hour at 37° C. before addition of trigger. No trigger conditions/trigger conditions are spiked with equal final DMSO concentrations of 0.2% DMSO. 20 μL of 10×LPS (final concentration 1 ng/mL) solution are added to all wells except for the ‘no trigger wells’ where 20 μL medium is added. Supernatant is collected after 18-20 h for IL-10 and TNFα determination using ELISA.
The plate is then washed once with PBST (PBS+0.05% Tween20) and once with PBS followed by the addition of 100 μL of blocking buffer (1% Bovine Serum Albumin (BSA)-5% Sucrose) and plates are sealed and incubated for at least 4 h at RT. After washing the plate once with PBST and once with PBS, 40 μL of standard or sample are added (TNFα standard curve is prepared using a 1/2 serial dilution starting from 16000 pg/mL; dilutions are made in dilution buffer (PBS+1% BSA)). Plates are washed twice with PBST, and once with PBS, after which 35 μL of the detection antibody is added (final concentration 0.25 μg/mL diluted in dilution buffer) and plates are incubated for at least 2 h at RT. Plates are washed twice with PBST, and once with PBS, where after 35 μL of Strep-HRP conjugate (0.5 μg/mL final concentration diluted in dilution buffer) is added. Plates are incubated in the dark, at RT for at least 45 min but no longer than 1 hour. Plates are washed twice with PBST, and once with PBS. Thereafter, 50 μL of luminol substrate is added to each well (prepared according to manufacturer's instructions), and incubated for 5 min at RT protected from light.
To measure the inhibition of LPS induced TNFα, percentage inhibition (PIN) values are calculated for all concentrations tested, compared to controls.
PIN values are plotted in concentration-response and EC50 values are derived using GraphPad Prism Software, applying 4-parameter nonlinear regression (sigmoidal) curve fitting.

[3] = system: LPS triggered IL-10 secretion in monocyte-derived macrophages (MdM); test: MdM assay: LPS-triggered IL-10 (ELISA); assay type: cell-based, human; settings: maximal fold change vs LPS only, median across assays
Outline: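 Readout is IL-10FCmax, the median across at least two runs of the highest fold change over LPS-only, from ELISA absorbance at 450 nm of 2 h supernatants. Macrophages came from day-10 cultures of human CD14+ monocytes, were given compound for 1 h at 37° C in 0.2% DMSO, then 200 ng/mL LPS.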

SIK3 [4] = target: T1, SIK3 (Homo sapiens, UniProt Q9Y2K2); test: biochemical; settings: ADP-Glo SIK kinase assay
T1 construct: purchased SignalChem S12-11G-100
T1 sequence (Q9Y2K2 whole entry): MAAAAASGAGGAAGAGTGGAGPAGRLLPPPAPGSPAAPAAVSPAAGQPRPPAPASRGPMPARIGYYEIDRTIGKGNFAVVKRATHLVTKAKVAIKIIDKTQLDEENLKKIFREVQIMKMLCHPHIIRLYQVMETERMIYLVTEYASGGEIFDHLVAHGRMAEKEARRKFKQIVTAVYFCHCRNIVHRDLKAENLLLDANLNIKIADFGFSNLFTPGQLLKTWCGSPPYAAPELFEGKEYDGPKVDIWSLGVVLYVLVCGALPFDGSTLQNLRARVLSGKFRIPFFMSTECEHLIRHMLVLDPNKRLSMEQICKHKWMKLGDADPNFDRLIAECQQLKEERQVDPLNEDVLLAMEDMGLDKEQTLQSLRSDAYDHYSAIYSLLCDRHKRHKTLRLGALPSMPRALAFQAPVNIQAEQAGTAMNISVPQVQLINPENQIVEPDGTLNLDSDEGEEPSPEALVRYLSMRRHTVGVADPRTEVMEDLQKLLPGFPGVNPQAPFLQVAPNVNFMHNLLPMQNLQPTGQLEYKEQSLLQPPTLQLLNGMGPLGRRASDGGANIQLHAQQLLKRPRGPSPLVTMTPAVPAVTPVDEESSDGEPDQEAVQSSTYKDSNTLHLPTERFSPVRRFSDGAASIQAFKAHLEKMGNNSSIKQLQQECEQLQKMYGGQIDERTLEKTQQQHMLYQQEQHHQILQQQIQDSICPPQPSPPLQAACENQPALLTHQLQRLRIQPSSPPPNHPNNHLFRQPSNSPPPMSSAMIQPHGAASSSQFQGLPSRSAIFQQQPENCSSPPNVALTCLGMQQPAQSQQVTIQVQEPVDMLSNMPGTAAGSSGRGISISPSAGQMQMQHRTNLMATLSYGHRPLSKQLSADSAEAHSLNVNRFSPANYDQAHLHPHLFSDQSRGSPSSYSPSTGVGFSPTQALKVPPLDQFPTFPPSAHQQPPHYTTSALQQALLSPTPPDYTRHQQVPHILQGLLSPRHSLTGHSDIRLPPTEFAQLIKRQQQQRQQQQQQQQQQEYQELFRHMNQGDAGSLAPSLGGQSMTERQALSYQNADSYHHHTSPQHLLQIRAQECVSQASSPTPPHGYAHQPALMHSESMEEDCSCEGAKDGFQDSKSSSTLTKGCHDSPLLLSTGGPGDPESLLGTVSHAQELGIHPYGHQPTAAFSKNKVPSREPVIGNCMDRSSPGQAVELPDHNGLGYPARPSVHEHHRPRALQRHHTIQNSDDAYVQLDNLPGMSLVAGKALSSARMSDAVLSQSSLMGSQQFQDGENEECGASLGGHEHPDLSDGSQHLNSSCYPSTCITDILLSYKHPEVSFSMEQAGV
Outline: (§1)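 ADP-Glo luminescent assay of ADP formed by SIK2 or SIK3 with substrate after ATP addition, 120 min at RT. Remaining ATP depleted 40 min, then ADP converted to ATP and read by luciferase luminescence after 30 min. Controls: 1% DMSO and 10 μM staurosporine (final).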

SIK2 [5] = target: T2, SIK2 (Homo sapiens, UniProt Q9H0K1); test: biochemical; settings: ADP-Glo SIK kinase assay
T2 construct: purchased ThermoFisher Scientific PV4792
T2 sequence (Q9H0K1 whole entry): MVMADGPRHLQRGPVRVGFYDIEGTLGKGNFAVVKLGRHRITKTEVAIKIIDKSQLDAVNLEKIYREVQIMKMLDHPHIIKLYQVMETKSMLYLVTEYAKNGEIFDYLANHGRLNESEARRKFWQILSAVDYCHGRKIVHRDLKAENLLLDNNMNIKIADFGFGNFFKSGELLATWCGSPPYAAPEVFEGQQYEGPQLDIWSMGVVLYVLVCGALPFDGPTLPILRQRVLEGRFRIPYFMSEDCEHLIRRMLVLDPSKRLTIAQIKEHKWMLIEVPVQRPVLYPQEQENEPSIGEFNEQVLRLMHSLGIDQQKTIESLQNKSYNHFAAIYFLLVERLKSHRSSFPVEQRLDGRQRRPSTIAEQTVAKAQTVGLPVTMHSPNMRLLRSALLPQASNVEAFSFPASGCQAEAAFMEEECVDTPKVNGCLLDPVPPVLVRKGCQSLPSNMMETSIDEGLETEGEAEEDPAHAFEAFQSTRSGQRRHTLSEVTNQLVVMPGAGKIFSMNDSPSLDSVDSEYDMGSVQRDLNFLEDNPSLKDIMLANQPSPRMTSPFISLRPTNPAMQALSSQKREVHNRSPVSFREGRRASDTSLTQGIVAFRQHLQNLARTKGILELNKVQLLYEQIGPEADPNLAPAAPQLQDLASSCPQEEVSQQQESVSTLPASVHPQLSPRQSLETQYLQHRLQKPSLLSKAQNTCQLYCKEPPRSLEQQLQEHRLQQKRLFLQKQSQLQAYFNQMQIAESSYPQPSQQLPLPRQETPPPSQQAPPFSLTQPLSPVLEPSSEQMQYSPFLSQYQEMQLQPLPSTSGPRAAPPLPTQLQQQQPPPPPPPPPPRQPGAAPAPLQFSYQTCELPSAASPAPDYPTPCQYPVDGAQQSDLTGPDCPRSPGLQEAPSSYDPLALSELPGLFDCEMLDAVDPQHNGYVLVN
Outline: as §1

SIK1 [6] = target: T3, SIK1 (Homo sapiens, UniProt P57059); test: biochemical; settings: ADP-Glo SIK kinase assay
T3 construct: purchased Carna Biosciences 02-131
T3 sequence (P57059 whole entry): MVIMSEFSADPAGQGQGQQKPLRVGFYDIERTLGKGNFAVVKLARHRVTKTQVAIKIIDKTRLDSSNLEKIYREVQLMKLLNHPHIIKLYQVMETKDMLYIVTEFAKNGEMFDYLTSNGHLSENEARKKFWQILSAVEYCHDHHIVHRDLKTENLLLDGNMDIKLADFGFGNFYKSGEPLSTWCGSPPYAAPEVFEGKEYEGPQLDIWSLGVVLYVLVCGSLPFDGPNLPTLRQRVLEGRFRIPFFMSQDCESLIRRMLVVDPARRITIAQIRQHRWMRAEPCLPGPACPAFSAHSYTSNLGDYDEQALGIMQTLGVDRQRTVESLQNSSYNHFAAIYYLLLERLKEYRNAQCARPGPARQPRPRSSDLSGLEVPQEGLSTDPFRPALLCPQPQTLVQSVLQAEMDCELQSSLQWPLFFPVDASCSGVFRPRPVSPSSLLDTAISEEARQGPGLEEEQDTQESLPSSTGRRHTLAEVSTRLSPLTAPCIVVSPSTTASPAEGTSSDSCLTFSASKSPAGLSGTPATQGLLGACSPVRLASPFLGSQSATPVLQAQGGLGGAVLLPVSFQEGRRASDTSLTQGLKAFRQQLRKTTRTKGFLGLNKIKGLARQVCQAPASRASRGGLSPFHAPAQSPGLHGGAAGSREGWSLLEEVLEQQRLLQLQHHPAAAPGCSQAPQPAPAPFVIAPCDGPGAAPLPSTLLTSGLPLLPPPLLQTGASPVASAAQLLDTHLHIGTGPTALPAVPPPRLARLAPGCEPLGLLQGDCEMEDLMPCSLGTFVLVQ
Outline: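 Wells with 1% DMSO or 10 μM staurosporine (final) define the control window. The kinase reaction with substrate and ATP runs 120 min at RT, followed by ADP-Glo detection: ATP depletion (40 min) and ADP-derived luminescence (30 min).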

SIK3 [7] = target: T1, SIK3; test: biochemical
Outline: (§2)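 AMARA peptide phosphorylation by SIK1–3 is quantified through ^33P uptake from a labeled/unlabeled ATP blend. Staurosporine at 10 μM final defines full inhibition, 1% DMSO the uninhibited signal. Quench uses phosphoric acid; counting follows filter capture.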

SIK2 [8] = target: T2, SIK2; test: biochemical; settings: 33P radioactive SIK kinase assay, AMARA peptide, 10 μM ATP
Outline: as §2

SIK1 [9] = target: T3, SIK1; test: biochemical; settings: 33P radioactive SIK kinase assay, AMARA peptide, 10 μM ATP; read-out: SIK1 IC50
Outline: as §2

| SMILES | pEC50 [1] | pIC50 (SIK3 [4]) | pIC50 (SIK2 [5]) | pIC50 (SIK1 [6]) | pIC50 (SIK3 [7]) | pIC50 (SIK2 [8]) | pIC50 (SIK1 [9]) | pEC50 [2] | IL-10 FCmax median [3] |
| --- | --- | --- | --- | --- | --- | --- | --- | --- | --- |
| COc1cc(-n2cnc3cc(-c4cnn(C5CN(C)C5)c4)ccc32)cc(OC)c1C(=O)NCC(F)(F)F [Cpd 98, 2,6-dimethoxy-4-[5-[1-(1-methylazetidin-3-yl)pyrazol-4-yl]benzimidazol-1-yl]-N-(2,2,2-trifluoroethyl)benzamide] | 7.00 to 10.00 | 8.00 to 11.00 | 8.00 to 11.00 | 8.00 to 11.00 | 8.00 to 11.00 | 8.00 to 11.00 | 7.00 to 8.00 | 7.00 to 10.00 | ++ (>1.5-4.5) |
| COc1cc(-n2cnc3cc(-c4ccnc(N5CCN(C)CC5)c4)ccc32)cc(OC)c1C(=O)NCC(F)(F)F [compound 120, 2,6-dimethoxy-4-[5-[2-(4-methylpiperazin-1-yl)-4-pyridyl]benzimidazol-1-yl]-N-(2,2,2-trifluoroethyl)benzamide] | 6.00 to 7.00 | 8.00 to 11.00 | 8.00 to 11.00 | 7.00 to 8.00 | 8.00 to 11.00 | 7.00 to 8.00 | 7.00 to 8.00 | 7.00 to 10.00 | ++ (>1.5-4.5) |
| COc1cc(-n2cnc3cc(-c4cnn(C)c4)ccc32)cc(OC)c1C(=O)N1CC(C#N)C1 [compound 192, 1-[2,6-dimethoxy-4-[5-(1-methylpyrazol-4-yl)benzimidazol-1-yl]benzoyl]azetidine-3-carbonitrile] | 6.00 to 7.00 | 8.00 to 11.00 | 8.00 to 11.00 | 7.00 to 8.00 | 7.00 to 8.00 | 7.00 to 8.00 | 7.00 to 8.00 | 6.00 to 7.00 |  |

Further lines, with some results ahead:

| pEC50 [1] | pIC50 (SIK3 [4]) | pIC50 (SIK2 [5]) | pIC50 (SIK1 [6]) | pIC50 (SIK3 [7]) | pIC50 (SIK2 [8]) | pIC50 (SIK1 [9]) | SMILES | pEC50 [2] | IL-10 FCmax median [3] |
| --- | --- | --- | --- | --- | --- | --- | --- | --- | --- |
| 7.00 to 10.00 | 8.00 to 11.00 | 8.00 to 11.00 | 8.00 to 11.00 | 8.00 to 11.00 | 8.00 to 11.00 | 8.00 to 11.00 | COc1cc(-c2cnc3cc(-c4cnn(C)c4)ccn23)cc(OC)c1C(=O)N[C@H](C)C(F)(F)F [Cpd 174, 2,6-dimethoxy-4-[7-(1-methylpyrazol-4-yl)imidazo[1,2-a]pyridin-3-yl]-N-[(1R)-2,2,2-trifluoro-1-methyl-ethyl]benzamide] | 7.00 to 10.00 | ++ (>1.5-4.5) |
| 7.00 to 10.00 | 8.00 to 11.00 | 8.00 to 11.00 | 8.00 to 11.00 | 8.00 to 11.00 | 8.00 to 11.00 | 8.00 to 11.00 | COc1cc(-c2cnc3cc(-c4cnn(C)c4)ccn23)cc(OC)c1C(=O)NCC(F)(F)F [Cpd 88] | 7.00 to 10.00 | ++ (>1.5-4.5) |
| 7.00 to 10.00 | 8.00 to 11.00 | 8.00 to 11.00 | 8.00 to 11.00 | 8.00 to 11.00 | 8.00 to 11.00 | 7.00 to 8.00 | COc1cc(-c2cnc3cc(-c4cnn(C)c4)ccn23)cc(OC)c1C(=O)N1CC(F)(F)C1 [Cpd 173, (3,3-difluoroazetidin-1-yl)-[2,6-dimethoxy-4-[7-(1-methylpyrazol-4-yl)imidazo[1,2-a]pyridin-3-yl]phenyl]methanone] | 7.00 to 10.00 | ++ (>1.5-4.5) |
